Like-named read-outs stand apart in the source and are kept apart here.
Tests used:
adenovirus [1] = conditions: cited from earlier work
adenovirus [2] = assay: RWG biosensor DMR assay: modulation of the adenovirus-induced response in HeLa cells; type: cell-based; conditions: HeLa cells pretreated 1 h with modulator (10 microM latrunculin A, 10 microM cytochalasin B, 40 microM DIPC), then adenovirus MOI 6,000; assay time about 1 hour
From the text: Reagents—Latrunculin A and cytochalasin B were purchased from Sigma Chemical Co. (St. Louis, Mo.). Cell permeable dynamin inhibitor peptide control (DIPC) was obtained from Tocris Chemical Co. (St. Louis, Mo.). Adenoviral particles (Ad-CMV-eGFP) were purchased from Vector Biolabs (Philadelphia, Pa.). Cell-culture-ready Corning® Epic™ 96well biosensor microplates were obtained from Corning Inc (Corning, N.Y.). HeLa cell line was obtained from Americal Type Cell Culture.
Cell Culture—HeLa cells were grown in Earle minimum Essential medium (EMEM) supplemented with 10% fetal bovine serum (FBS), 4.5 g/liter glucose, 2 mM glutamine, and antibiotics. ˜10^4 HeLa cells suspended in 200 μl the appropriate medium containing 10% FBS were placed in each well of a 96well biosensor microplate, and were cultured at 37° C. under air/5% CO2 until about 95% confluency was reached.
Optical biosensor measurements—Corning® Epic® angular interrogation system with transverse magnetic or p-polarized TM0 mode (as described in, for example, U.S. Patent Publication No. US-2004-0263841, U.S. patent application Ser. No. 11/019,439, filed Dec. 21, 2004, and U.S. Patent Publication No. US-2005-0236554.) was used. […] Afterwards, the sensor microplate containing cells was placed into the optical system, and the cell responses were recorded before and after addition of a solution. […]

A431 cells = assay: Marker-induced DMR signal in A431 cells (RWG biosensor); type: cell-based, Human
Procedure: Cell Culture—Human epidermoid carcinoma A431 cells were obtained from American Type Cell Culture. For A431 cell culturing, A431 cells were grown in Dulbecco's modified Eagle's medium (DMEM) supplemented with 10% fetal bovine serum (FBS), 4.5 g/liter glucose, 2 mM glutamine, and antibiotics. about 1-2×10^4 cells at passage 3 to 5 suspended in 50 μl the growth medium were placed in each well. After cell seeding, the cells were cultured at 37° C. under air/5% CO2 until about 95% confluency was reached (about 2 days). Afterwards, the serum medium was replaced with the serum-free DMEM medium, and at the same time adenovirus particles were introduced. The resultant cells were subject to continuous culturing for overnight. […]
The doses of virus (multiplicity of infection (MOI)) used in this experiment were comprised of from 0 to about MOI 6,000. At 20 hrs post infection (PI) the A431 cells were washed with HBSS and real time kinetics of the cell responses were recorded before and after stimulation with 32 nM EGF (targeting EGFR and MAPK pathway and cell adhesion pathway), 25 nM epinephrine (targeting Gs pathway and cell adhesion pathway), 32 nM of bradykinin (targeting Gq and Gs pathway), 25 microM of SFFLR-amide or 25 microM of SLIGKV-amide (both targeting Gq and G12/13 pathways) using the Epic® system and illustrated in FIGS. 5 to 7. […]

Akt = conditions: 25 nM epinephrine for 1 hr vs untreated cells
Procedure: (§1) Thus, A431 cells were infected overnight in serum-free medium with various doses of Adenovirus-GFP (MOI of about 1, c, about 10, b or about 500, a). As a negative control A431 cells were treated only with serum-free medium (mock control bar “d”). At 20 hrs post infection, the infected and non-infected A431 cells were washed and then stimulated with 32 nM EGF for 30 min (FIG. 8A), 25 nM epinephrine for 1 hr (FIG. 8B), or serum-free medium for 1 hr at ambient room temperature (column e in FIGS. 8A and 8B, cell non infected and untreated). Cells extracts were then prepared according to the recommended protocol and analyzed using Mercator™ phosphoarray assay. […] The letter labeled bars (a-e) represent: a=EFG/−adenovirus MOI 500, b=EFG/adenovirus MOI 10, c=EFG/adenovirus MOI 1, d=EFG-mock, and e=untreated cells. […] The letter labeled bars (a-e) are as above for FIG. 8A.

FAK = assay: Mercator Phosphoarray assay in non-infected A431 cells, FAK; type: cell-based, Human
Procedure: as §1

Paxillin = assay: Mercator Phosphoarray assay in non-infected A431 cells, Paxillin; type: cell-based, Human
Procedure: as §1

EGFR = assay: Mercator Phosphoarray assay in non-infected A431 cells, EGFR; type: cell-based, Human
Procedure: as §1

[3] = 25 nM epinephrine for 1 hr vs untreated cells
[4] = 32 nM EGF for 30 min vs untreated cells

C=C1[C@@H](C)[C@H]2[C@H](Cc3ccccc3)NC(=O)[C@]23OC(=O)/C=C/[C@H](O)CCC[C@@H](C)C/C=C/[C@H]3[C@@H]1O [cytochalasin B]
trafficking of adenovirus in cells (adenovirus [1]): block the trafficking of adenovirus | adenovirus-induced P-DMR signal (adenovirus [2]): clearly inhibited the P-DMR signal

CNC[C@H](O)c1ccc(O)c(O)c1 [epinephrine, Epinephrine]
DMR signal upon stimulation (A431 cells): dose-dependent DMR signal | phosphorylation level of Akt (Akt): do not seem to be altered | phosphorylation level of FAK (FAK; [3]): do not seem to be altered | phosphorylation level of paxillin (Paxillin; [3]): decreases | phosphorylation level of EGFR (EGFR; [3]): do not seem to be altered

C/C1=C/C(=O)O[C@@H]2C[C@@H](CC[C@H](C)/C=C\C=C\CC1)O[C@@](O)([C@@H]1CSC(=O)N1)C2 [latrunculin A, Latrunculin A]
adenovirus-induced P-DMR signal (adenovirus [2]): clearly inhibited the P-DMR signal

CC[C@]1(O)C[C@@H]2CN(CCc3c([nH]c4ccccc34)[C@@](C(=O)OC)(c3cc4c(cc3OC)N(C)[C@H]3[C@@](O)(C(=O)OC)[C@H](OC(C)=O)[C@]5(CC)C=CCN6CC[C@]43[C@@H]65)C2)C1 [vinblastin]
trafficking of adenovirus in cells (adenovirus [1]): block the trafficking of adenovirus

EGF: natural ligand of epidermal growth factor receptor (NSDSECPLSHDGYCLHDGVCMYIEALDKYACNCVVGYIGERCQYRDLKWWELR; Epidermal growth factor; UniProt P01133 971-1023, looked up)
DMR signal upon stimulation (A431 cells; A431 cells, quiescent for EGF, bradykinin, ATP and thrombin): DMR signal with three distinct and sequential phases | phosphorylation level of FAK (FAK; [4]): increased significantly | phosphorylation level of paxillin (Paxillin; [4]): only mildly increased | phosphorylation level of EGFR (EGFR; [4]): increased significantly

From US20100323902A1, “Live-cell signals of pathogen intrusion and methods thereof” (priority 2007, published 2010)
